Measured values: article PMC5362750, “Discovery of Potent, Selective, and Orally Bioavailable Small-Molecule Modulators of the Mediator Complex-Associated Kinases CDK8 and CDK19” (Journal of Medicinal Chemistry, 2016)

Tests used:
beta 3 (h) = target: T1, beta 3 (h) (Homo sapiens, UniProt P13945); assay: CEREP binding assay; details: antagonist radioligand, read-out: % Inhibition of Control Specific Binding
T1 construct: purchased Millipore (KinaseProfiler) kinase panel

ETB (h) = target: T2, ETB (h) (Homo sapiens, UniProt P24530); assay: CEREP binding assay; details: agonist radioligand, read-out: % Inhibition of Control Specific Binding
T2 construct: purchased Millipore (KinaseProfiler) kinase panel

UT (h) = target: T3, UT (h) (Homo sapiens, UniProt Q9UKP6); assay: CEREP binding assay; details: agonist radioligand, read-out: % Inhibition of Control Specific Binding
T3 construct: CEREP

EPHA4 = target: T4, EPHA4 (Homo sapiens, UniProt P54764); assay: Kinase panel (Millipore); format: biochemical; details: 1 µM, ATP at Km
T4 construct: purchased Millipore (KinaseProfiler) kinase panel

ARG = ARG (Homo sapiens, UniProt P42684); assay: Kinase panel (Millipore); format: biochemical; details: 1 µM, ATP at Km
EPHA5 = target: T5, EPHA5 (Homo sapiens, UniProt P54756); assay: Kinase panel (Millipore); format: biochemical; details: 1 µM, ATP at Km
T5 construct: purchased Millipore (KinaseProfiler) kinase panel

FER = target: T6, FER (Homo sapiens, UniProt P16591); assay: Kinase panel (Millipore); format: biochemical; details: 1 µM, ATP at Km
T6 construct: purchased Millipore (KinaseProfiler) kinase panel

MAPKAP-K3 = target: T7, MAPKAP-K3 (Homo sapiens, UniProt Q16644); assay: Kinase panel (Millipore); format: biochemical; details: 1 µM, ATP at Km
T7 construct: purchased Millipore (KinaseProfiler) kinase panel

MARK1 = MARK1 (Homo sapiens, UniProt Q9P0L2); assay: Kinase panel (Millipore); format: biochemical; details: 1 µM, ATP at Km
MEK1 = MEK1 (Homo sapiens, UniProt Q02750); assay: Kinase panel (Millipore); format: biochemical; details: 1 µM, ATP at Km
MET = target: T8, MET (Homo sapiens, UniProt P08581); assay: Kinase panel (Millipore); format: biochemical; details: 1 µM, ATP at Km
T8 construct: purchased Millipore (KinaseProfiler) kinase panel

FLT1 = target: T9, FLT1 (Homo sapiens, UniProt P17948); assay: Kinase panel (Millipore); format: biochemical; details: 1 µM, ATP at Km
T9 construct: purchased Millipore (KinaseProfiler) kinase panel

FLT3 = target: T10, FLT3 (Homo sapiens, UniProt P36888); assay: Kinase panel (Millipore); format: biochemical; details: 1 µM, ATP at Km
T10 construct: purchased Millipore (KinaseProfiler) kinase panel

MSK2 = target: T11, MSK2 (Homo sapiens, UniProt O75676); assay: Kinase panel (Millipore); format: biochemical; details: 1 µM, ATP at Km
T11 construct: purchased Millipore (KinaseProfiler) kinase panel

CSK = CSK (Homo sapiens, UniProt P41240); assay: Kinase panel (Millipore); format: biochemical; details: 1 µM, ATP at Km
IRR = target: T12, IRR (Homo sapiens, UniProt P14616); assay: Kinase panel (Millipore); format: biochemical; details: 1 µM, ATP at Km
T12 construct: purchased Millipore (KinaseProfiler) kinase panel

NEK11 = target: T13, NEK11 (Homo sapiens, UniProt Q8NG66); assay: Kinase panel (Millipore); format: biochemical; details: 1 µM, ATP at Km
T13 construct: purchased Millipore (KinaseProfiler) kinase panel

P70S6K = target: T14, P70S6K (Homo sapiens, UniProt P23443); assay: Kinase panel (Millipore); format: biochemical; details: 1 µM, ATP at Km
T14 construct: purchased Millipore (KinaseProfiler) kinase panel

PAK5 = PAK5 (Homo sapiens, UniProt Q9P286); assay: Kinase panel (Millipore); format: biochemical; details: 1 µM, ATP at Km
RSK4 = target: T15, RSK4 (Homo sapiens, UniProt Q9UK32); assay: Kinase panel (Millipore); format: biochemical; details: 1 µM, ATP at Km
T15 construct: purchased Millipore (KinaseProfiler) kinase panel

PI3K GAMMA = PI3K GAMMA (Homo sapiens, UniProt P48736); assay: Kinase panel (Millipore); format: biochemical; details: 1 µM, ATP at Km
PIM-1 = PIM-1 (Homo sapiens, UniProt P11309); assay: Kinase panel (Millipore); format: biochemical; details: 1 µM, ATP at Km
PKCGAMMA = PKCGAMMA (Homo sapiens, UniProt P05129); assay: Kinase panel (Millipore); format: biochemical; details: 1 µM, ATP at Km
SRC(1-530) = SRC(1-530) (Homo sapiens, UniProt P12931); assay: Kinase panel (Millipore); format: biochemical; details: 1 µM, ATP at Km
PKCMU = target: T16, PKCMU (Homo sapiens, UniProt Q15139); assay: Kinase panel (Millipore); format: biochemical; details: 1 µM, ATP at Km
T16 construct: purchased Millipore (KinaseProfiler) kinase panel

PKG1BETA = target: T17, PKG1BETA (Homo sapiens, UniProt Q13976); assay: Kinase panel (Millipore); format: biochemical; details: 1 µM, ATP at Km
T17 construct: purchased Millipore (KinaseProfiler) kinase panel

YES = YES (Homo sapiens, UniProt P07947); assay: Kinase panel (Millipore); format: biochemical; details: 1 µM, ATP at Km
PLK3 = target: T18, PLK3 (Homo sapiens, UniProt Q9H4B4); assay: Kinase panel (Millipore); format: biochemical; details: 1 µM, ATP at Km
T18 construct: purchased Millipore (KinaseProfiler) kinase panel

CK1GAMMA1 = CK1GAMMA1 (Homo sapiens, UniProt Q9HCP0); assay: Kinase panel (Millipore); format: biochemical; details: 1 µM, ATP at Km
DCAMKL2 = target: T19, DCAMKL2 (Homo sapiens, UniProt Q8N568); assay: Kinase panel (Millipore); format: biochemical; details: 1 µM, ATP at Km
T19 construct: purchased Millipore (KinaseProfiler) kinase panel

CLK3 = target: T20, CLK3 (Homo sapiens, UniProt P49761); assay: Kinase panel (Millipore); format: biochemical; details: 1 µM, ATP at Km
T20 construct: purchased Millipore (KinaseProfiler) kinase panel

RSE = target: T21, RSE (Homo sapiens, UniProt Q06418); assay: Kinase panel (Millipore); format: biochemical; details: 1 µM, ATP at Km
T21 construct: purchased Millipore (KinaseProfiler) kinase panel

[1] = female, Beagle, dog, in vivo
CKIT(D816V) = CKIT(D816V) (Homo sapiens, UniProt P10721, D816V); details: 1 µM, ATP at Km
CDK1/CYCLINB = CDK1/CYCLINB (Homo sapiens, UniProt P06493); details: 1 µM, ATP at Km
CDK5/P25 = CDK5/P25 (Homo sapiens, UniProt Q00535); details: 1 µM, ATP at Km
alpha 2A (h) = alpha 2A (h) (Homo sapiens, UniProt P08913); assay: biochemical; details: read-out: % Inhibition of Control Specific Binding
D3 (h) = D3 (h) (Homo sapiens, UniProt P35462); assay: biochemical; details: read-out: % Inhibition of Control Specific Binding
Sequence of D3 (h) (P35462 whole entry): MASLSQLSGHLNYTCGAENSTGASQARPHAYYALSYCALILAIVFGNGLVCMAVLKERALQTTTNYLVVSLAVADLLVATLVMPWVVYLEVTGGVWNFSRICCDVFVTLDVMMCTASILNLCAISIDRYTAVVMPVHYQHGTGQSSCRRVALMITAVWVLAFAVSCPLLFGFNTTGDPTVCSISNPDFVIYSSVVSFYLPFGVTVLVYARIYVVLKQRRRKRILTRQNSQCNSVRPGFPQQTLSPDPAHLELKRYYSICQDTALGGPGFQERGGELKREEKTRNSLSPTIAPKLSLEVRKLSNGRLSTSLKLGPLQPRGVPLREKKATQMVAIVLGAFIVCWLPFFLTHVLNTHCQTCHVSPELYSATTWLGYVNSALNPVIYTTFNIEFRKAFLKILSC

T1 sequence (P13945 whole entry): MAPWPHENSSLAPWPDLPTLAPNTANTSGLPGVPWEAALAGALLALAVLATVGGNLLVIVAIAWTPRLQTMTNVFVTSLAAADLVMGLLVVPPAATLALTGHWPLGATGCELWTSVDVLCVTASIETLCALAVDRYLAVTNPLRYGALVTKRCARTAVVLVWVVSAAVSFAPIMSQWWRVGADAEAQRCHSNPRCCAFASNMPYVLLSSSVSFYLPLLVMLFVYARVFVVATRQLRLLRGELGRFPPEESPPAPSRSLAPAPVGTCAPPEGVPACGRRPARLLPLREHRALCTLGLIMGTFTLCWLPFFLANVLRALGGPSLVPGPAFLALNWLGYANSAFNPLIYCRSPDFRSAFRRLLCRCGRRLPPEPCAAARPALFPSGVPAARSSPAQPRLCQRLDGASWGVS
T21 sequence (Q06418 41-890): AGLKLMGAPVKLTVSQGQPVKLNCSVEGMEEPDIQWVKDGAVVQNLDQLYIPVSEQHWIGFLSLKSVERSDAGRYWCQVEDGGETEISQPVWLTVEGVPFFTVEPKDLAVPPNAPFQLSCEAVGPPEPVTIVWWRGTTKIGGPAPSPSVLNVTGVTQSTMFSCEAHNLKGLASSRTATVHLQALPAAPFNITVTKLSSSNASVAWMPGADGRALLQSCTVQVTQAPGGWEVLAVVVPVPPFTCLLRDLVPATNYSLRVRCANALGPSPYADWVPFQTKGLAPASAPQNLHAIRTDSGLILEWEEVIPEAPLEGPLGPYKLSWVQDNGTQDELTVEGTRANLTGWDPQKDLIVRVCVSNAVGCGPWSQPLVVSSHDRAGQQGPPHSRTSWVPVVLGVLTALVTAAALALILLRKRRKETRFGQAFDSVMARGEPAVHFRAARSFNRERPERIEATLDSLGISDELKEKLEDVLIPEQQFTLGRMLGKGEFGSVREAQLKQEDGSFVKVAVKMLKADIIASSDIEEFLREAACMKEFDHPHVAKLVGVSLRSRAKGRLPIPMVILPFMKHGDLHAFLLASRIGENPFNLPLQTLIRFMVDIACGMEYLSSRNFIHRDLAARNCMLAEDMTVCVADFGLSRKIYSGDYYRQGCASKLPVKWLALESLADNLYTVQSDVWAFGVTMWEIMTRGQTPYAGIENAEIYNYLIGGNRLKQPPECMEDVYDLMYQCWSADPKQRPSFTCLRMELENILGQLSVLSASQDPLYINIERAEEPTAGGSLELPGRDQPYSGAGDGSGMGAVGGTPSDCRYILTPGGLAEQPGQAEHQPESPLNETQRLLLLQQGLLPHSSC
Sequence of CDK1/CYCLINB (P06493 whole entry): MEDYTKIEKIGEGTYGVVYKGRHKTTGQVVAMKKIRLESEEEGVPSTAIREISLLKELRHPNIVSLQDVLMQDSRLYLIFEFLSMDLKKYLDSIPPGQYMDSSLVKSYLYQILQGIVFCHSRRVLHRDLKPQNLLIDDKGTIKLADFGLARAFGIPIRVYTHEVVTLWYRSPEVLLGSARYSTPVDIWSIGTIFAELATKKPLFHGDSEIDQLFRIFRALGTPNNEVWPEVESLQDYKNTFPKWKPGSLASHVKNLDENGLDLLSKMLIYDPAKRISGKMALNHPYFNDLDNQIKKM
Sequence of CDK1/CYCLINB (P14635 whole entry partner): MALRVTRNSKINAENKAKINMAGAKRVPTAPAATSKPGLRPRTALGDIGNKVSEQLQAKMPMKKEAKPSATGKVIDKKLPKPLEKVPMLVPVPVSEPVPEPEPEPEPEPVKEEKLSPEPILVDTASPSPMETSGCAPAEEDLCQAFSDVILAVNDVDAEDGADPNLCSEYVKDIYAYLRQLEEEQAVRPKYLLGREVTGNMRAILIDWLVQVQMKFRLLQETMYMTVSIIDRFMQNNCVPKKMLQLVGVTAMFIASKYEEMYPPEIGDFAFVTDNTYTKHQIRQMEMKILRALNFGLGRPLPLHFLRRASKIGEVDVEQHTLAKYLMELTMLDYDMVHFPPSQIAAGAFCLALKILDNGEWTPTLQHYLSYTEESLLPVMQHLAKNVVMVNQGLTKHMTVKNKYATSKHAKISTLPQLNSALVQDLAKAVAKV
T6 sequence (P16591 whole entry): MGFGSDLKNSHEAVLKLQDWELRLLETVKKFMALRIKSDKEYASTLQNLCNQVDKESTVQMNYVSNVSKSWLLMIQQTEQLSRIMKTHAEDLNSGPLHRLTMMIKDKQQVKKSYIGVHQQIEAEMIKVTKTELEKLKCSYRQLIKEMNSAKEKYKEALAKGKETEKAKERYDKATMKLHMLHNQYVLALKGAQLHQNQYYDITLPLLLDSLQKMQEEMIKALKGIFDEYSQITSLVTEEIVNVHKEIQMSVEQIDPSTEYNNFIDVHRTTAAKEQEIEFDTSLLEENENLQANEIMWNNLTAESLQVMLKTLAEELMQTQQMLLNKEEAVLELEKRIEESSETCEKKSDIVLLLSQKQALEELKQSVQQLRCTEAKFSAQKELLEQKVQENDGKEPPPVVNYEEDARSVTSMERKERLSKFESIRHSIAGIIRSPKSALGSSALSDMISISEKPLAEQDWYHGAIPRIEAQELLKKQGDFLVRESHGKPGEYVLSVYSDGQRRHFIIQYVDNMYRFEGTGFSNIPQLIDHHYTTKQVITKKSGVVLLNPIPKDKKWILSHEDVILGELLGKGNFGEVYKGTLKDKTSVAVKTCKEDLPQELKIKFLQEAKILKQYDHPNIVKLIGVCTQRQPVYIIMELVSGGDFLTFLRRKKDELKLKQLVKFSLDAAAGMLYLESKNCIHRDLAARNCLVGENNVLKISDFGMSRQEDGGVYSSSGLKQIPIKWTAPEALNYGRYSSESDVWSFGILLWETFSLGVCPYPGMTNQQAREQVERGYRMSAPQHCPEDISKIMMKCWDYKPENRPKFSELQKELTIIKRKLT
T13 sequence (Q8NG66 whole entry): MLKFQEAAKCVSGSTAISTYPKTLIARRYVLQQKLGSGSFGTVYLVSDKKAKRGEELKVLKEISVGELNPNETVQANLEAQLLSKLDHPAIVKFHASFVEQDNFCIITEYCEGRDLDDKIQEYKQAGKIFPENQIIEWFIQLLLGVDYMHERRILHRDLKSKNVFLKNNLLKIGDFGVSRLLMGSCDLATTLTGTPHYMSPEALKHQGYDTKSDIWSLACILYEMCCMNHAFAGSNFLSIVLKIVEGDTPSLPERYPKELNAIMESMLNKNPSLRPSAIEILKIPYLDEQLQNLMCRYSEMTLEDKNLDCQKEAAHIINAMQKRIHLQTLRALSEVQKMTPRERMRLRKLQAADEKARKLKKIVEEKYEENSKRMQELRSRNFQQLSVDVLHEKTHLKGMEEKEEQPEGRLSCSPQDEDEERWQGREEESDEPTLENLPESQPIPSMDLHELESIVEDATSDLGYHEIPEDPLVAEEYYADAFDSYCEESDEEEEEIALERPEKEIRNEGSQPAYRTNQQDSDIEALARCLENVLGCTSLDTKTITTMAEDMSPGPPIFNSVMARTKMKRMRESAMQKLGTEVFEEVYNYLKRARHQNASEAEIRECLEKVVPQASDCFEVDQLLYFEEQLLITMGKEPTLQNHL
T14 sequence (P23443 whole entry): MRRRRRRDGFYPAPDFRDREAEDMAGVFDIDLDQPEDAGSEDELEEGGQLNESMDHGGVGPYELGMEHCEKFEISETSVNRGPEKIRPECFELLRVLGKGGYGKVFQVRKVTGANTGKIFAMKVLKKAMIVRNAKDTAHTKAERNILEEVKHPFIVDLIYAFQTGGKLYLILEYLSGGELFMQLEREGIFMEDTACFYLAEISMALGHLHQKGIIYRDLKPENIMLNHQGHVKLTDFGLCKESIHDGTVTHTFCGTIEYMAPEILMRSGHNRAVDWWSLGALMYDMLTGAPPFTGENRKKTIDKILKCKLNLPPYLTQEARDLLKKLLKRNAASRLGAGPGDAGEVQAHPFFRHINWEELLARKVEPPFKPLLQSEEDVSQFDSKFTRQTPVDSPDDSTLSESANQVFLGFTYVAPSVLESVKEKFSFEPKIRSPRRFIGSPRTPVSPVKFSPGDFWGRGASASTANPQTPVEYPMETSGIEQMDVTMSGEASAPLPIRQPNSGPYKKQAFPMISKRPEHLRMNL
T2 sequence (P24530 27-442): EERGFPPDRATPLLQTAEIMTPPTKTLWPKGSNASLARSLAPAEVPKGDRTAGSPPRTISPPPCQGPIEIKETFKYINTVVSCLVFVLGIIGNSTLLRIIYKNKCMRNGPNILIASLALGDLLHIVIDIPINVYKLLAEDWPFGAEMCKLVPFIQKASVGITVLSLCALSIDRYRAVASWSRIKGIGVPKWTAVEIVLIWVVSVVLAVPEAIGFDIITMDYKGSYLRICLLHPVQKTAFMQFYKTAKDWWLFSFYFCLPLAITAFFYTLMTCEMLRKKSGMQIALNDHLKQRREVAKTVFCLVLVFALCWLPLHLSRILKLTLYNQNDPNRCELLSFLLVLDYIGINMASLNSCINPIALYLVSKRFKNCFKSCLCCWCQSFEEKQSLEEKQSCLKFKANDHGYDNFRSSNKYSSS

## Cn1ncc2cc(-c3cnc(N)c(Cl)c3N3CCC4(CCNC4=O)CC3)ccc21 [Compound 109, 8-(2-Amino-3-chloro-5-(1-methyl-1H-indazol-5-yl)pyridin-4-yl)-2,8-diazaspiro[4.5]decan-1-one]
Beta 3 (h)
  inhibition at 10 µM: -16%
ETB (h)
  inhibition at 10 µM: -23%
UT (h)
  inhibition at 10 µM: 33%
EPHA4
  % effect: 5%
ARG
  % effect: 5%
EPHA5
  % effect: -9%
FER
  % effect: 15%
MAPKAP-K3
  % effect: 5%
MARK1
  % effect: 17%
MEK1
  % effect: -13%
MET
  % effect: 1%
FLT1
  % effect: -8%
FLT3
  % effect: 7%
MSK2
  % effect: 5%
CSK
  % effect: 8%
IRR
  % effect: 5%
NEK11
  % effect: 12%
P70S6K
  % effect: -1%
PAK5
  % effect: -11%
RSK4
  % effect: -6%
PI3K GAMMA
  % effect: 7%
PIM-1
  % effect: 2%
PKCGAMMA
  % effect: -6%
SRC(1-530)
  % effect: 0%
PKCMU
  % effect: 5%
PKG1BETA
  % effect: -7%
YES
  % effect: -2%
PLK3
  % effect: -2%
CK1GAMMA1
  % effect: -5%
DCAMKL2
  % effect: -3%
CLK3
  % effect: 4%
RSE
  % effect: 1%
[1]
  LBF: 43%
CKIT(D816V)
  % effect: -7%
CDK1/CYCLINB
  % effect: -12%
CDK5/P25
  % effect: 13%
Alpha 2A (h)
  inhibition at 10 µM: 11%
D3 (h)
  inhibition at 10 µM: 7%
